Measured values reported in patent publication US20100093702A1, “METHYLENE AMINES OF THIENO[2,3-d]PYRIMIDINE AND THEIR USE AS ADENOSINE A2a RECEPTOR ANTAGONISTS” (priority 2008, published 2010).
Structures can show the parent of a compound that is named as a salt.

How the values were obtained:
[1] = biological target: T1, human adenosine A1 receptor (Homo sapiens, UniProt P30542); experiment: Adenosine A1 Receptor Functional Assay (A1GAL2); type: cell-based; details: CHO-K1 cells, cAMP inducible beta-galactosidase reporter, 4 nM r-PIA/1 uM Forskolin challenge
T1 construct: expressed in transfected cells; host or cells: CHO-K1
T1 sequence (P30542 1-326): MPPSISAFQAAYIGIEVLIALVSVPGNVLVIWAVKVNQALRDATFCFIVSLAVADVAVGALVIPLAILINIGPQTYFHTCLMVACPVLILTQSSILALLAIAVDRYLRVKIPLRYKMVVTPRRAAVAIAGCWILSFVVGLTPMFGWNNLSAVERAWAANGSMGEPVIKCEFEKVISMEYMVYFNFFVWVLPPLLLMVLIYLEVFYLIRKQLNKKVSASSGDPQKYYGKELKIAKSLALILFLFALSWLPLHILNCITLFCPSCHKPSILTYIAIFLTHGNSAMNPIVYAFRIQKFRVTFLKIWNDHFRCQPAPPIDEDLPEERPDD
Procedure, shortened: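 CHO-K1 cells expressing the receptor with a cAMP-inducible β-galactosidase reporter were preincubated with compound (11-point curves) about 15 min at room temperature, then challenged with r-PIA (4 nM)/forskolin (1 µM) for 5.5–6 h at 37 °C. Lysates were read colorimetrically at 405 nm, and IC/EC50 was obtained by curve fitting.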

[2] = biological target: T2, human adenosine A2a receptor (Homo sapiens, UniProt P29274); experiment: Adenosine A2a Receptor Functional Assay (A2AGAL2); type: cell-based; details: CHO-K1 cells, cAMP inducible beta-galactosidase reporter, 15 nM NECA agonist challenge
T2 construct: expressed in transfected cells; host or cells: CHO-K1
T2 sequence (P29274 whole entry): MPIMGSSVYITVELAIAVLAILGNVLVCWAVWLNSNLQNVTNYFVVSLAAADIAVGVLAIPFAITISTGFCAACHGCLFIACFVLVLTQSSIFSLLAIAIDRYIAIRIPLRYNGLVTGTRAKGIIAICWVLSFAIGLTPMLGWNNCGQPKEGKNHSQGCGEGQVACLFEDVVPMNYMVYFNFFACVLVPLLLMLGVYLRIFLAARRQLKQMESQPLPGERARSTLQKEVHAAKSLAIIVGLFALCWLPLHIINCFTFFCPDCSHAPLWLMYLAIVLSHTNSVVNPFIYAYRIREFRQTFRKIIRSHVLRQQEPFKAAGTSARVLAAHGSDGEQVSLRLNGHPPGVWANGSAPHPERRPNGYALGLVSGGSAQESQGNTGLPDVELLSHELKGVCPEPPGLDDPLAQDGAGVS
Procedure, shortened: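 Antagonist mode in CHO-K1 cells expressing human A2a with a cAMP-inducible β-galactosidase reporter (10K cells/well, cultured 2 days). 11-point compound curves preincubated ~15 min at room temperature in Ham's F-12/0.1% BSA, then 15 nM NECA challenge, 5.5–6 h at 37 °C. Colorimetric β-gal read at 405 nm; IC/EC50 fitted.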

[3] = biological target: T3, human A2a adenosine receptor (Homo sapiens, UniProt P29274); experiment: Ligand Binding Assay for Adenosine A2a Receptor (A2A-B); details: HEK293 plasma membrane, radioligand [3H]CGS21680
T3 construct: purchased PerkinElmer RB-HA2a; host or cells: HEK293
T3 sequence (P29274 whole entry): as above
Method: Ligand Binding Assay for Adenosine A2a Receptor
Ligand binding assay of adenosine A2a receptor was performed using plasma membrane of HEK293 cells containing human A2a adenosine receptor (PerkinElmer, RB-HA2a) and radioligand [^3H]CGS21680 (PerkinElmer, NET 1021). Assay was set up in 96-well polypropylene plate in total volume of 200 μL by sequentially adding 20 μL 1:20 diluted membrane, 130 μL assay buffer (50 mM Tris.HCl, pH7.4 10 mM MgCl2, 1 mM EDTA) containing [^3H] CGS21680, 50 μL diluted compound (4×) or vehicle control in assay buffer. Nonspecific binding was determined by […] NECA. Reaction was carried out at room temperature for 2 hours before filtering through 96-well GF/C filter plate pre-soaked in 50 mM Tris.HCl, pH7.4 containing 0.3% polyethylenimine. Plates were then washed 5 times with cold 50 mM Tris.HCl, pH7.4, dried and sealed at the bottom. Microscintillation fluid 30 μL was added to each well and the top sealed. Plates were counted on Packard Topcount for [^3H]. Data was analyzed in Microsoft Excel and GraphPad Prism programs. (Varani, K.; Gessi, S.; Dalpiaz, A.; Borea, P. A. British Journal of Pharmacology, 1996, 117, 1693)

SMILES | Ki [1] [nM] | Ki [2] [nM] | Ki [3] [nM]
Nc1nc(-c2ccco2)nc2sc(CN3CC[C@@H](F)C3)cc12 [Example 54, 6-(3-Fluoro-pyrrolidin-1-ylmethyl)-2-furan-2-yl-thieno[2,3-d]pyrimidin-4-ylamine] | 878 | 11.5 | 8.2
Nc1nc(-c2ccco2)nc2sc(CN3CCC(F)(F)CC3)cc12 [Example 56, 6-(4,4-Difluoro-piperidin-1-ylmethyl)-2-furan-2-yl-thieno[2,3-d]pyrimidin-4-ylamine] | 2230 | 48.7 | 21
Nc1nc(-c2ccco2)nc2sc(CN3CCCC(F)(F)C3)cc12 [Example 57, 6-(3,3-Difluoro-piperidin-1-ylmethyl)-2-furan-2-yl-thieno[2,3-d]pyrimidin-4-ylamine] | 294 | 6.62 | 8.4
N#Cc1cccc(-c2nc(N)c3cc(CN4CCCC(F)(F)C4)sc3n2)c1 [Example 62, 3-[4-Amino-6-(3,3-difluoro-piperidin-1-ylmethyl)-thieno[2,3-d]pyrimidin-2-yl]-benzonitrile] | 1180 | 50.3 | 384
N#Cc1ccc(-c2nc(N)c3cc(CN4CC=CCC4)sc3n2)cc1 [Example 63, 4-[4-Amino-6-(3,6-dihydro-2H-pyridin-1-ylmethyl)-thieno[2,3-d]pyrimidin-2-yl]-benzonitrile] | 1630 | 178 | 150
N#Cc1cccc(-c2nc(N)c3cc(CN4CC=CC4)sc3n2)c1 [Example 64, 3-[4-Amino-6-(2,5-dihydro-pyrrol-1-ylmethyl)-thieno[2,3-d]pyrimidin-2-yl]-benzonitrile] | 2070 | 83.5 | 77
N#Cc1cccc(-c2nc(N)c3cc(CN4CCCC4)sc3n2)c1 [Example 65, 3-(4-Amino-6-pyrrolidin-1-ylmethyl-thieno[2,3-d]pyrimidin-2-yl)-benzonitrile] | 129 | > 10000 | 41.8
N#Cc1cccc(-c2nc(N)c3cc(CN4CC=CCC4)sc3n2)c1 [Example 68, 3-[4-Amino-6-(3,6-dihydro-2H-pyridin-1-ylmethyl)-thieno[2,3-d]pyrimidin-2-yl]-benzonitrile] | 212 | 13.3 | 378
Nc1nc(-c2cocn2)nc2sc(CN3CC=CC3)cc12 [Example 69, 6-(2,5-Dihydro-pyrrol-1-ylmethyl)-2-oxazol-4-yl-thieno[2,3-d]pyrimidin-4-ylamine] | 3890 | 238 | 1020
Nc1nc(-c2cocn2)nc2sc(CN3CC=CCC3)cc12 [Example 70, 6-(3,6-Dihydro-2H-pyridin-1-ylmethyl)-2-oxazol-4-yl-thieno[2,3-d]pyrimidin-4-ylamine] | 2960 | 240 | 393
N#Cc1ccccc1-c1nc(N)c2cc(CN3CCC(F)CC3)sc2n1 [Example 73, 2-[4-Amino-6-(4-fluoro-piperidin-1-ylmethyl)-thieno[2,3-d]pyrimidin-2-yl]-benzonitrile] | 5050 | 1030 | 2020
N#Cc1cccc(-c2nc(N)c3cc(CN4CCOCC4)sc3n2)c1 [Example 74, 3-(4-Amino-6-morpholin-4-ylmethyl-thieno[2,3-d]pyrimidin-2-yl)-benzonitrile] | 1010 | 35.9 | 93.2
N#Cc1cccc(-c2nc(N)c3cc(CN4C5CCC4CC5)sc3n2)c1 [Example 77, 3-[4-Amino-6-(7-aza-bicyclo[2.2.1]hept-7-ylmethyl)-thieno[2,3-d]pyrimidin-2-yl]-benzonitrile] | 2170 | 95 | 74.9
Cn1cccc1-c1nc(N)c2cc(CN3CCC(F)CC3)sc2n1 [Example 78, 6-(4-Fluoro-piperidin-1-ylmethyl)-2-(1-methyl-1H-pyrrol-2-yl)-thieno[2,3-d]pyrimidin-4-ylamine] | 1600 | 634 | 733
CC(C)c1ccccc1-c1nc(N)c2cc(CN3CCC(F)CC3)sc2n1 [Example 79, 6-(4-Fluoro-piperidin-1-ylmethyl)-2-(2-isopropyl-phenyl)-thieno[2,3-d]pyrimidin-4-ylamine] | 4470 | 1040 | 7410
COc1cccc(-c2nc(N)c3cc(CN4CC=CCC4)sc3n2)c1 [Example 80, 6-(3,6-Dihydro-2H-pyridin-1-ylmethyl)-2-(3-methoxy-phenyl)-thieno[2,3-d]pyrimidin-4-ylamine] | 1080 | 102 | 184
N#Cc1cccc(-c2nc(N)c3cc(CN4CCC(F)CC4)sc3n2)c1 [Example 82, 3-[4-Amino-6-(4-fluoro-piperidin-1-ylmethyl)-thieno[2,3-d]pyrimidin-2-yl]-benzonitrile] | 2950 | 53.8 | 444
N#Cc1cccc(-c2nc(N)c3cc(CN4CCSCC4)sc3n2)c1 [Example 83, 3-(4-Amino-6-thiomorpholin-4-ylmethyl-thieno[2,3-d]pyrimidin-2-yl)-benzonitrile] | 1780 | 64.9 | 281
COc1cccc(-c2nc(N)c3cc(CN4CCSCC4)sc3n2)c1 [Example 85, 2-(3-Methoxy-phenyl)-6-thiomorpholin-4-ylmethyl-thieno[2,3-d]pyrimidin-4-ylamine] | 2960 | 169 | 659
COc1cccc(-c2nc(N)c3cc(CN4CCCC(F)(F)C4)sc3n2)c1 [Example 86, 6-(3,3-Difluoro-piperidin-1-ylmethyl)-2-(3-methoxy-phenyl)-thieno[2,3-d]pyrimidin-4-ylamine] | 1810 | 97.5 | 242
N#Cc1ccc(-c2nc(N)c3cc(CN4CC=CC4)sc3n2)cc1 [Example 88, 4-[4-Amino-6-(2,5-dihydro-pyrrol-1-ylmethyl)-thieno[2,3-d]pyrimidin-2-yl]-benzonitrile] | 2350 | 78.9 | 76
Nc1nc(-c2ccc(Cl)o2)nc2sc(CN3CCC(F)CC3)cc12 [Example 89, 2-(5-Chloro-furan-2-yl)-6-(4-fluoro-piperidin-1-ylmethyl)-thieno[2,3-d]pyrimidin-4-ylamine hydrochloride] | 1080 | 35.9 | 1.9
Nc1nc(-c2ccc(Cl)o2)nc2sc(CN3CCCC3)cc12 [Example 90, 2-(5-Chloro-furan-2-yl)-6-pyrrolidin-1-ylmethyl-thieno[2,3-d]pyrimidin-4-ylamine hydrochloride] | 712 | 22.3 | 3.7
Nc1nc(-c2ccco2)nc2sc(CNC34CC5CC(CC(C5)C3)C4)cc12 [Example 91, 6-(Adamantan-1-ylaminomethyl)-2-furan-2-yl-thieno[2,3-d]pyrimidin-4-ylamine] | 1030 | 121 | 15
Nc1nc(-c2ccco2)nc2sc(CN3CCC(F)CC3)cc12 [Example 92, 6-(4-Fluoro-piperidin-1-ylmethyl)-2-furan-2-yl-thieno[2,3-d]pyrimidin-4-ylamine Hydrochloride] | 741 | 18.9 | 12
Nc1nc(-c2ccc(Cl)o2)nc2sc(CN3CCCCCC3)cc12 [Example 93, 6-Azepan-1-ylmethyl-2-(5-chloro-furan-2-yl)-thieno[2,3-d]pyrimidin-4-ylamine] | 1420 | 33.2 | 1.8
Nc1nc(-c2ccc(Cl)o2)nc2sc(CN3CC=CCC3)cc12 [Example 95, 2-(5-Chloro-furan-2-yl)-6-(3,6-dihydro-2H-pyridin-1-ylmethyl)-thieno[2,3-d]pyrimidin-4-ylamine] | 188 | 10.7 | 3.4
Nc1nc(C2CC2)nc2sc(CN3CC=CCC3)cc12 [Example 96, 2-Cyclopropyl-6-(3,6-dihydro-2H-pyridin-1-ylmethyl)-thieno[2,3-d]pyrimidin-4-ylamine] | 3020 | 325 | 1620
